The source made the active and inactive calls. The rule behind the calls is not given here.
How the values were obtained:
[1] = target: Procathepsin L (Homo sapiens, UniProt P07711)
Description: Inhibition of human Cat L

[2] = target: T1, Cathepsin L2 (Homo sapiens, UniProt O60911); assay: Inhibition of human Cat V
T1 sequence (O60911 whole entry): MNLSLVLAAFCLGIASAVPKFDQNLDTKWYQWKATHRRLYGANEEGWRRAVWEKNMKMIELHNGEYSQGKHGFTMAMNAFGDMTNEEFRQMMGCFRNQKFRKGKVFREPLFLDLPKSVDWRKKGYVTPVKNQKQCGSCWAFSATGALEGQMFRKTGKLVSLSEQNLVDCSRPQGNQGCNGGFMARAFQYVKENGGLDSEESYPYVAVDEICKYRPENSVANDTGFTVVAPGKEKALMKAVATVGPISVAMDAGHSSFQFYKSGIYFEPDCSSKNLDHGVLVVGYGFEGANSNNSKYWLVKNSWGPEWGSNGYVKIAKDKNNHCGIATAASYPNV

[3] = target: T2, Cathepsin K (Homo sapiens, UniProt P43235); assay: Inhibition of human Cat K expressed in Ramos cells; assay type: cell-based
T2 sequence (P43235 whole entry): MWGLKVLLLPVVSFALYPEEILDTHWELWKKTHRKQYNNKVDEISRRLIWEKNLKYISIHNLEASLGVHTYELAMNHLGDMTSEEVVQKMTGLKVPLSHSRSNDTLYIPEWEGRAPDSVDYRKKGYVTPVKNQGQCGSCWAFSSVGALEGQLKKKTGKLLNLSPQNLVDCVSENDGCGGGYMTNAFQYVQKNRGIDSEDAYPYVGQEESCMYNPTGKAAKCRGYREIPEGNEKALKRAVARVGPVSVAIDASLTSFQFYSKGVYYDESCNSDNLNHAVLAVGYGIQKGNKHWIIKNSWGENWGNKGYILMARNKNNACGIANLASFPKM

[4] = target: Cathepsin B (Homo sapiens, UniProt P07858)
Description: Inhibition of human Cat B in HepG2 cells

[5] = target: Cathepsin S (Homo sapiens, UniProt P25774); assay: Inhibition of human Cat S expressed in Ramos cells; assay type: cell-based
Sequence of Cathepsin S (P25774 whole entry): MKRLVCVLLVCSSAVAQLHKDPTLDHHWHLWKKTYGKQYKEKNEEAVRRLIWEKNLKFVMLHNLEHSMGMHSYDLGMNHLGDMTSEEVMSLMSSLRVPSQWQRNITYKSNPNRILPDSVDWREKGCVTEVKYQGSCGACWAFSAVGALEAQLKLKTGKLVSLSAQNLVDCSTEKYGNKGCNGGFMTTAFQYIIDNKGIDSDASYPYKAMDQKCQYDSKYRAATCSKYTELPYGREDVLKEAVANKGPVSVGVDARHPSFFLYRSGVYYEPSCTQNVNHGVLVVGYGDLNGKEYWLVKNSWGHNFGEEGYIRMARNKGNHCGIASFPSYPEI

[6] = target: Cruzipain (Trypanosoma cruzi, UniProt P25779)
Sequence of Cruzipain (P25779 whole entry): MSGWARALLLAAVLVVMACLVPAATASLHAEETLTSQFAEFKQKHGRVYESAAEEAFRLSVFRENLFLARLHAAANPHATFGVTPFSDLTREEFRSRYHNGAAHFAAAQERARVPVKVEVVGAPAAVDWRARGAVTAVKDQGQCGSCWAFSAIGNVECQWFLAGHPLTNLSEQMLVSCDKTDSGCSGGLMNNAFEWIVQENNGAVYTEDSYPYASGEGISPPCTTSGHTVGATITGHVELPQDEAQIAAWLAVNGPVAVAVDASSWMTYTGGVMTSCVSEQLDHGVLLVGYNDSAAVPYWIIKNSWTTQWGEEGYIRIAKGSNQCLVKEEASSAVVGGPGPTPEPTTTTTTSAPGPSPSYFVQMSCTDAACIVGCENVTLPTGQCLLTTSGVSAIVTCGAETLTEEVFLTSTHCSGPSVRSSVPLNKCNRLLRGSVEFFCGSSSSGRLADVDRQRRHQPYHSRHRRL
Description: Inhibition of Trypanosoma cruzi Cruzipain

[7] = organism: Mus musculus; assay: Toxicity in Trypanosoma cruzi infected mouse; assay type: organism-based; details: in vivo
[8] = system: Trypanosoma cruzi; assay: Antimicrobial activity against Trypanosoma cruzi infected in mouse assessed as reduction in parasitemia; assay type: functional, organism-based
[9] = Half life in rat; assay type: ADME, organism-based; details: in vivo
[10] = Half life in dog; assay type: ADME, organism-based, Canis lupus familiaris; details: in vivo
[11] = Oral bioavailability in rat; assay type: ADME, organism-based; details: in vivo
[12] = Oral bioavailability in dog; assay type: ADME, organism-based, Canis lupus familiaris; details: in vivo
[13] = Half life in mouse; assay type: ADME, organism-based; details: in vivo

Sequence of Procathepsin L (P07711 whole entry): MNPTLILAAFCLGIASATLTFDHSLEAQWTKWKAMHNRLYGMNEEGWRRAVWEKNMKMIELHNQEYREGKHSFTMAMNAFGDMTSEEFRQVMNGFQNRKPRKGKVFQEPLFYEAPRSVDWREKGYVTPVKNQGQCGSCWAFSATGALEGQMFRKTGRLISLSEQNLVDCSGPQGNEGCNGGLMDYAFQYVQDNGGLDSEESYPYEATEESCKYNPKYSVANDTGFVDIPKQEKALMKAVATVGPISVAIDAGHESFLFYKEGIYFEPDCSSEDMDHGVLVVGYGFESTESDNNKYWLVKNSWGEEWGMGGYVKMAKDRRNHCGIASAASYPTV

`CC(C)[C@H](N[C@@H](c1ccc(-c2ccc(S(C)(=O)=O)cc2)cc1)C(F)(F)F)C(=O)N[C@H](C#N)Cc1ccc(C#N)cc1F` gave an IC50 [1] of 121 nM, an IC50 [2] of 28 nM and an IC50 [3] of 0.9 nM. It also gave an IC50 [4] of 143 nM and an IC50 [5] of 169 nM.

`CC(C)(F)C[C@H](N[C@@H](c1ccc(-c2ccc(-c3ccncc3)cc2)cc1)C(F)(F)F)C(=O)N[C@H](C#N)Cc1ccccc1` gave an IC50 [1] of 436 nM.

`CS(=O)(=O)c1ccc(-c2ccc([C@H](N[C@@H](CC(Cl)Cl)C(=O)N[C@H](C#N)Cc3ccccc3)C(F)(F)F)cc2)cc1` showed an IC50 [1] of 42 nM and an IC50 [4] of 383 nM.

For `CC(C)(F)C[C@H](N[C@@H](c1ccc(-c2ccc(S(C)(=O)=O)cc2)cc1)C(F)(F)F)C(=O)N[C@H](C#N)C1(c2ccccc2)CC1`, the IC50 [1] was greater than 10000 nM, the IC50 [6] was greater than 10000 nM and the IC50 [4] was greater than 10000 nM.

For `CC(C)(C)[C@H](N[C@@H](c1ccc(-c2ccc(S(C)(=O)=O)cc2)cc1)C(F)(F)F)C(=O)N[C@H](C#N)Cc1ccccc1`, the IC50 [1] was greater than 10000 nM, the IC50 [6] was 380 nM and the IC50 [4] was greater than 10000 nM.

In the case of `CC(C)(F)C[C@H](N[C@@H](c1ccc(-c2ccc(S(C)(=O)=O)cc2)cc1)C(F)(F)F)C(=O)N[C@H](C#N)CC(F)(F)F`, the IC50 [1] is reported as 2630 nM and the IC50 [6] is reported as 130 nM.

With `CS(=O)(=O)c1ccc(-c2ccc([C@H](N[C@@H](Cc3ccccc3)C(=O)N[C@H](C#N)Cc3ccccc3)C(F)(F)F)cc2)cc1` the IC50 [1] was 458 nM, the IC50 [6] was 7 nM and the IC50 [4] was 577 nM.

Work on `CC(C)(F)C[C@H](N[C@@H](c1ccc(-c2ccc(S(C)(=O)=O)cc2)cc1)C(F)(F)F)C(=O)N[C@H](C#N)Cc1ccncc1` yielded an IC50 [1] of 219 nM and an IC50 [4] of 79 nM.

Work on `CC(C)C[C@H](N[C@@H](c1ccc(-c2ccc(S(C)(=O)=O)cc2)cc1)C(F)(F)F)C(=O)N[C@H](C#N)Cc1ccccc1` yielded an IC50 [1] of 117 nM, an IC50 [6] of 0.2 nM and an IC50 [4] of 163 nM.

For `CC(C)(F)C[C@H](N[C@@H](c1ccc(-c2cn[nH]c2)cc1)C(F)(F)F)C(=O)N[C@H](C#N)Cc1ccccc1`, the IC50 [1] was 379 nM, the IC50 [6] was 33 nM and the IC50 [4] was 59 nM.

In the case of `CC(C)C[C@H](N[C@@H](c1ccc(-c2ccc(N3CCNCC3)cc2)cc1)C(F)(F)F)C(=O)NCC#N`, the Activity [7] is reported as “Non-toxic”, the IC50 [6] is reported as 1.8 nM and the Activity [8] is reported as “Active”.

In the case of `CC(C)(F)C[C@H](N[C@@H](c1ccc(-c2ccc(S(C)(=O)=O)cc2)cc1)C(F)(F)F)C(=O)N[C@H](C#N)Cc1ccc(C#N)cc1F`, the IC50 [1] is reported as 49 nM and the IC50 [4] is reported as 9 nM.

In the case of `CC(C)(F)C[C@H](N[C@@H](c1ccc(-c2ccc(C3(C(=O)N4CCOCC4)CC3)cc2)cc1)C(F)(F)F)C(=O)N[C@H](C#N)Cc1ccccc1`, the IC50 [1] is reported as 1080 nM and the IC50 [4] is reported as 64 nM.

Work on `CC(C)[C@H](N[C@@H](c1ccc(-c2ccc([C@@H](O)C(F)F)cc2)cc1)C(F)(F)F)C(=O)N[C@H](C#N)Cc1ccc(C#N)cc1F` yielded an IC50 [1] of 1060 nM, an IC50 [2] of 69 nM and an IC50 [3] of 2 nM. It also gave an IC50 [4] of 87 nM, a half-life [9] of 5.2 h and a half-life [10] of 4.6 h. It also gave a bioavailability [11] of 20%, an IC50 [5] of 322 nM and a bioavailability [12] of 30%.

`CS(=O)(=O)c1ccc(-c2ccc([C@H](N[C@H](C(=O)N[C@H](C#N)Cc3ccccc3)C3CC3)C(F)(F)F)cc2)cc1` gave an IC50 [1] of 751 nM, an IC50 [6] of 7 nM and an IC50 [4] of 68 nM.

Compound `CC(C)(F)C[C@H](N[C@@H](c1ccc(-c2ccc(S(C)(=O)=O)cc2)cc1)C(F)(F)F)C(=O)N[C@H](C#N)Cc1ccccc1` has an IC50 [1] of 966 nM, an IC50 [4] of 122 nM and a half-life [13] of less than 0.5 h.

Work on `CC(C)(F)C[C@H](N[C@@H](c1ccc(-c2ccc(C3(C(N)=O)CC3)cc2)cc1)C(F)(F)F)C(=O)N[C@H](C#N)Cc1ccccc1` yielded an IC50 [1] of 426 nM and an IC50 [4] of 27 nM.

In the case of `CC(C)(F)C[C@H](N[C@@H](c1ccc(-c2ccc(S(C)(=O)=O)cc2)cc1)C(F)(F)F)C(=O)N[C@@H](C#N)Cc1ccc(C#N)cc1F`, the IC50 [1] is reported as 711 nM and the IC50 [4] is reported as 260 nM.

Work on `CC(C)(F)C[C@H](N[C@@H](c1ccc(-c2ccc([C@@H](O)C(F)F)cc2)cc1)C(F)(F)F)C(=O)N[C@H](C#N)Cc1ccccc1` yielded an IC50 [1] of 1090 nM and an IC50 [4] of 48 nM.

Compound `CC(C)[C@H](N[C@@H](c1ccc(-c2ccc(C3(C(N)=O)CC3)cc2)cc1)C(F)(F)F)C(=O)N[C@H](C#N)Cc1ccc(C#N)cc1F` has an IC50 [1] of 98 nM, an IC50 [2] of 79 nM and an IC50 [3] of 3 nM. It also gave an IC50 [4] of 41 nM and an IC50 [5] of 408 nM.

Work on `CC(C)(F)C[C@H](N[C@@H](c1ccc(-c2ccc(S(C)(=O)=O)cc2)cc1)C(F)(F)F)C(=O)N[C@H](C#N)CCc1ccccc1` yielded an IC50 [1] greater than 10000 nM, an IC50 [6] of 510 nM and an IC50 [4] of 397 nM.

Work on `CS(=O)(=O)c1ccc(-c2ccc([C@H](N[C@@H](CC3CC3)C(=O)N[C@H](C#N)Cc3ccccc3)C(F)(F)F)cc2)cc1` yielded an IC50 [1] of 5250 nM and an IC50 [4] of 231 nM.

In the case of `CC(C)[C@H](N[C@@H](c1ccc(-c2ccc(S(C)(=O)=O)cc2)cc1)C(F)(F)F)C(=O)N[C@H](C#N)Cc1ccccc1`, the IC50 [1] is reported as 631 nM and the IC50 [4] is reported as 433 nM.
